Data on 36 compounds can be found in ChEMBL document CHEMBL1130362, “Pyrrolylquinoxalinediones: The importance of pyrrolic substitution on AMPA receptor binding” (Bioorg Med Chem Lett, 1997).

Molecules are shown by their SMILES.

Assay [1] deals with Glutamate receptor ionotropic AMPA (Homo sapiens, UniProt P42261+P42262+P42263+P48058).
Description: Displacement of [3H]AMPA from AMPA receptor
Assay [2] has as its target Glutamate receptor ionotropic, NMDA 2C (Rattus norvegicus, UniProt Q00961). The assay is described as follows: Ability to displace [3H]glycine from NMDA receptor.
Assay [3] has as its system Mus musculus. The assay is described as follows: In vivo AMPA antagonism to protect 50% animals after intraperitoneal administration of the compound. Format: functional. The following applies: ip.

Sequence of Glutamate receptor ionotropic, NMDA 2C (Q00961 whole entry): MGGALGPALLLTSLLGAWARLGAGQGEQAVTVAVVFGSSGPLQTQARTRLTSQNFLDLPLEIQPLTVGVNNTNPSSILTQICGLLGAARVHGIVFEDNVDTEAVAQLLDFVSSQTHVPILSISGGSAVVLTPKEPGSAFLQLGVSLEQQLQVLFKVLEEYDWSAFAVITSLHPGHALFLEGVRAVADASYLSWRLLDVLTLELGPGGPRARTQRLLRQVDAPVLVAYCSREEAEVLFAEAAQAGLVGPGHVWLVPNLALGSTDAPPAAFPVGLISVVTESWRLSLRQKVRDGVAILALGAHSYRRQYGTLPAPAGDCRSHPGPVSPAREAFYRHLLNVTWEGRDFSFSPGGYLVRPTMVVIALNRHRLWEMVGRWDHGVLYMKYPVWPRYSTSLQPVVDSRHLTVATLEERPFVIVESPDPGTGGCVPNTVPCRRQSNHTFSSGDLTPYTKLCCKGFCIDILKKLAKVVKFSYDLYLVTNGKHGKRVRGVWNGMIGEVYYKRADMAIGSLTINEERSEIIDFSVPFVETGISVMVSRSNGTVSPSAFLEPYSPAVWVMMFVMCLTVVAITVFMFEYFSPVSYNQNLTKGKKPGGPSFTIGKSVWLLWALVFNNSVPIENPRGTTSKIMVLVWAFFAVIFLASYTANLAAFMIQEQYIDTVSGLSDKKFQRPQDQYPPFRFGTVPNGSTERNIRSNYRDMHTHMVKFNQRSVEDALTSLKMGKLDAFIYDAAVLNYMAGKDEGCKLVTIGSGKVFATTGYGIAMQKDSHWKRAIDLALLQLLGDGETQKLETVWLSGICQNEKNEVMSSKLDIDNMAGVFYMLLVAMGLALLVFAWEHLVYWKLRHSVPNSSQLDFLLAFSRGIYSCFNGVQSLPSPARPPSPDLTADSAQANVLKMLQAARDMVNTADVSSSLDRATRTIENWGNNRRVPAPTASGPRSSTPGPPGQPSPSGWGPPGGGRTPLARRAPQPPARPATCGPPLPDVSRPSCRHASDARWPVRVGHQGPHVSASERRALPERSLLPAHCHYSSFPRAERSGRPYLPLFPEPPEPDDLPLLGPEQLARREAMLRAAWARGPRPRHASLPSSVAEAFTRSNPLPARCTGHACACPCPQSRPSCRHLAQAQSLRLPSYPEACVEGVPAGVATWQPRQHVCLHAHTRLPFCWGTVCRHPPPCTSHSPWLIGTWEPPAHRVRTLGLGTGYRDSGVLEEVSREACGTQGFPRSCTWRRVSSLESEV

What is called Ki is a measure of affinity in units of concentration, obtained from inhibition or displacement. High values mean a looser hold on the target, low ones a stronger hold on the target. Regarding `Cc1ccc(C)n1-c1cc2nc(O)c(O)nc2cc1C(F)(F)F`, in assay [1], the Ki was over 25000 nM. Same read-out and setting: the result for `Cc1ccc(C)n1-c1cc2c(cc1C(F)(F)F)[nH]c(=O)c(=O)n2CC(=O)O` reads 2000 nM; that for `O=C(O)Cn1c(=O)c(=O)[nH]c2cc([N+](=O)[O-])c(-n3cccc3)cc21`, 70 nM; that for `O=C(O)Cn1c(=O)c(=O)[nH]c2cc([N+](=O)[O-])c(-n3ccc(CNC(=O)NCCc4ccncc4)c3)cc21`, 95 nM. On the same count and under the same terms, the result for `O=C(NCc1ccccc1)c1cccn1-c1cc2nc(O)c(O)nc2cc1C(F)(F)F` reads over 25000 nM. The same measure, in the same setting: the result for `CN(Cc1ccccc1)Cc1ccn(-c2cc3nc(O)c(O)nc3cc2[N+](=O)[O-])c1` reads 880 nM; that for `O=[N+]([O-])c1cc2nc(O)c(O)nc2cc1-n1cccc1`, 400 nM. In turn, `O=C(O)Cn1c(=O)c(=O)[nH]c2cc([N+](=O)[O-])c(-n3ccc(CC(=O)N4CCCCC4)c3)cc21` yielded a Ki in assay [1] of 3000 nM. This Ki lies about 7.5-fold higher than the previous one. Compound `CCN(CC)Cc1ccn(-c2cc3c(cc2C(F)(F)F)[nH]c(=O)c(=O)n3CC(=O)O)c1` returned a Ki in assay [1] of 890 nM. Against the preceding compound, the Ki is about 3.4-fold lower. Same read-out and setting: to `NCc1ccn(-c2cc3nc(O)c(O)nc3cc2[N+](=O)[O-])c1` belongs 2000 nM. One may read the ED50 as the dose that gives a 50% effect, or the effect in half of the subjects. Low readings indicate an effect at a small dose, high ones a need for a large dose. As to `O=C(O)Cn1c(=O)c(=O)[nH]c2cc([N+](=O)[O-])c(-n3ccc(CNC(=O)Nc4ccccc4)c3)cc21`, the Ki in assay [2] was over 30000 nM; in assay [1], 71 nM. In addition, the ED50 in assay [3] was over 30 mg/kg. In assay [1], `NCc1ccn(-c2cc3c(cc2C(F)(F)F)[nH]c(=O)c(=O)n3CC(=O)O)c1` showed a Ki of 10000 nM. This counts as double-digit micromolar.

In turn, `O=C(O)Cn1c(=O)c(=O)[nH]c2cc([N+](=O)[O-])c(-n3ccc(CNC(=O)c4ccncc4)c3)cc21` displayed a Ki in assay [1] of 280 nM. Compared with the last compound, the Ki is about 36-fold lower.

For the compound `O=C(O)Cn1c(=O)c(=O)[nH]c2cc([N+](=O)[O-])c(-n3ccc(/C=N/OCc4ccccc4)c3)cc21`, the Ki in assay [1] was found to be 210 nM. The Ki values of the last two compounds are within 1.5-fold of each other. For `O=c1[nH]c2cc(-n3ccnc3)c([N+](=O)[O-])cc2[nH]c1=O` [YM-90K], the affinity in assay [1], expressed as Ki, was 135 nM. This Ki is about 1.6-fold lower than that of the compound before.

On to `O=C(O)Cn1c(=O)c(=O)[nH]c2cc(C(F)(F)F)c(-n3ccc(CNC(=O)Nc4ccccc4)c3)cc21`, for which the Ki is over 30000 nM in assay [2] and 15 nM in assay [1]. Further, the ED50 in assay [3] turned out to be 18 mg/kg.

For `O=C(O)Cn1c(=O)c(=O)[nH]c2cc(C(F)(F)F)c(-n3ccc(CNC(=O)Nc4ccc(C(F)(F)F)cc4)c3)cc21`, the Ki was over 30000 nM in assay [2] and 5 nM in assay [1]. The ED50 in assay [3] was found to be 14 mg/kg. `O=C(O)Cn1c(=O)c(=O)[nH]c2cc(C(F)(F)F)c(-n3cccc3)cc21`: the Ki in assay [1] is 180 nM. Take `O=C(O)Cn1c(=O)c(=O)[nH]c2cc(C(F)(F)F)c(-n3ccc(CNC(=O)Cc4ccccc4)c3)cc21`: the affinity in assay [1] corresponds to a Ki of 140 nM. Take `O=C(NCc1ccn(-c2cc3nc(O)c(O)nc3cc2[N+](=O)[O-])c1)Nc1ccccc1`: the Ki in assay [2] is over 30000 nM; in assay [1], 250 nM. The ED50 in assay [3] is 30 mg/kg.

`O=C(O)Cn1c(=O)c(=O)[nH]c2cc([N+](=O)[O-])c(-n3ccc(CNC(=O)CCc4ccccc4)c3)cc21` showed an inhibition constant (Ki) in assay [1] of 500 nM. For the compound `NCc1ccn(-c2cc3c(cc2[N+](=O)[O-])[nH]c(=O)c(=O)n3CC(=O)O)c1`, the Ki in assay [1] stood at 840 nM. As for `CC(=O)NCc1ccn(-c2cc3c(cc2C(F)(F)F)[nH]c(=O)c(=O)n3CC(=O)O)c1`, the Ki in assay [2] was over 30000 nM; in assay [1], 76 nM. Moreover, in assay [3], it took a dose of 10 mg/kg to reach the 50% effect level (ED50). The compound `O=C(NCc1ccn(-c2cc3nc(O)c(O)nc3cc2[N+](=O)[O-])c1)Nc1ccncc1` returned a Ki in assay [1] of 110 nM. Same read-out and setting: to `O=C(O)c1cccn1-c1cc2nc(O)c(O)nc2cc1C(F)(F)F` belongs over 25000 nM; to `Cc1ccc(C)n1-c1cc2nc(O)c(O)nc2cc1[N+](=O)[O-]`, 20000 nM. The same measure, in the same setting: the result for `Oc1nc2cc(-n3cccc3)c(C(F)(F)F)cc2nc1O` reads 3000 nM. `NCc1ccn(-c2cc3nc(O)c(O)nc3cc2C(F)(F)F)c1` registered a Ki in assay [1] of 980 nM. On to `O=C(O)Cn1c(=O)c(=O)[nH]c2cc(C(F)(F)F)c(-n3ccc(CNC(=O)c4ccccc4)c3)cc21`, for which the Ki in assay [2] is over 30000 nM; in assay [1] it was 78 nM. The median effective dose (ED50) in assay [3] is over 30 mg/kg. As for `NS(=O)(=O)c1cccc2c1c([N+](=O)[O-])cc1nc(O)c(O)nc12` [NBQX], in assay [3], the ED50 was over 50 mg/kg. Turning to `O=C(O)Cn1c(=O)c(=O)[nH]c2cc(C(F)(F)F)c(-n3ccc(CNC(=O)NCc4ccccc4)c3)cc21`, the inhibition constant (Ki) was over 30000 nM in assay [2] and 49 nM in assay [1]. Besides, the ED50 in assay [3] was found to be 30 mg/kg. On to `COC(=O)c1cccn1-c1cc2nc(O)c(O)nc2cc1C(F)(F)F`, for which, in assay [1], the inhibitory constant (Ki) was over 25000 nM. In the case of `O=C(O)Cn1c(=O)c(=O)[nH]c2cc(C(F)(F)F)c(-n3ccc(CNC(=O)Nc4ccc(Br)cc4)c3)cc21`, the Ki was over 30000 nM in assay [2] and 4 nM in assay [1]. The compound further displayed an ED50 in assay [3] of 4.1 mg/kg.

Take `O=Cc1ccn(-c2cc3nc(O)c(O)nc3cc2C(F)(F)F)c1`: in assay [1], the affinity, expressed as Ki, was 650 nM. Same read-out and setting: to `O=C(O)Cn1c(=O)c(=O)[nH]c2cc(C(F)(F)F)c(-n3ccc(/C=N/OCc4ccccc4)c3)cc21` belongs 250 nM. In the case of `O=C(O)Cn1c(=O)c(=O)[nH]c2cc(C(F)(F)F)c(-n3ccc(CNC(=O)Nc4ccc([N+](=O)[O-])cc4)c3)cc21`, the results for the Ki in assay [2] and in assay [1] were over 30000 nM and 5 nM, respectively. The compound also came in with an ED50 in assay [3] of 5.5 mg/kg.
